Source: PMC3685175 (Journal of medicinal chemistry, 2013)

How the values were obtained:
Assay type in all cases: biochemical
P450 1A1 = target: T1, P450 1A1 (Homo sapiens, UniProt P04798)
T1 sequence (P04798 1-512): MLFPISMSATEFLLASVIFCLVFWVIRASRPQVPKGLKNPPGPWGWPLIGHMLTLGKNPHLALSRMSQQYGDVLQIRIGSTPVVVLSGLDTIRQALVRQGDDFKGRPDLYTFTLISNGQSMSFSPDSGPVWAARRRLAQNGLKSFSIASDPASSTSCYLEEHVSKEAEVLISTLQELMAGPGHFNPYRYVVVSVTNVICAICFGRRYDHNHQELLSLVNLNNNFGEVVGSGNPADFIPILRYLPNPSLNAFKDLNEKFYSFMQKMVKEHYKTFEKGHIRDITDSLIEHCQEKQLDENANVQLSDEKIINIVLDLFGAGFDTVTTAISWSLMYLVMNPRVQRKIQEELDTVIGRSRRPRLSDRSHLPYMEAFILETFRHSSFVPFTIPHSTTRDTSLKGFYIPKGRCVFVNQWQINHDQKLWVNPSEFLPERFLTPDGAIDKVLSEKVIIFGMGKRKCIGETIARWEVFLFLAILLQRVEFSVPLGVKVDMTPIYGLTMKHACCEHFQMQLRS

P450 1A2 = target: T2, P450 1A2 (Homo sapiens, UniProt P05177)
T2 sequence (P05177 1-516): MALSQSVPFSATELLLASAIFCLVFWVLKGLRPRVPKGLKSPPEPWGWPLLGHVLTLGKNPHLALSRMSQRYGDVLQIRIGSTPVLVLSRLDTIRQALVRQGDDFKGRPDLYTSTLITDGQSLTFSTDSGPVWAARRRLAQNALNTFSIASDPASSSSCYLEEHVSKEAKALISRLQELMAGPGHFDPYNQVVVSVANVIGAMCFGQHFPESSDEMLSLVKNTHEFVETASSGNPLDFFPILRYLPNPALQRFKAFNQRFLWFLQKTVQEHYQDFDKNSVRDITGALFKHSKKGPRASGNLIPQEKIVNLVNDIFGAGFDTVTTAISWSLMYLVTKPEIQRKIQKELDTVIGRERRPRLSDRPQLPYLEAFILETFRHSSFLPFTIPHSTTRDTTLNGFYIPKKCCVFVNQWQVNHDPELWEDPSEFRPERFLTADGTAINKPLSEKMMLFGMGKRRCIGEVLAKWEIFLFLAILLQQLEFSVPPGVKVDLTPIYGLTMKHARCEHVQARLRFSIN

P450 1B1 = target: T3, P450 1B1 (Homo sapiens, UniProt Q16678); settings: from IC50 values
T3 sequence (Q16678 1-543): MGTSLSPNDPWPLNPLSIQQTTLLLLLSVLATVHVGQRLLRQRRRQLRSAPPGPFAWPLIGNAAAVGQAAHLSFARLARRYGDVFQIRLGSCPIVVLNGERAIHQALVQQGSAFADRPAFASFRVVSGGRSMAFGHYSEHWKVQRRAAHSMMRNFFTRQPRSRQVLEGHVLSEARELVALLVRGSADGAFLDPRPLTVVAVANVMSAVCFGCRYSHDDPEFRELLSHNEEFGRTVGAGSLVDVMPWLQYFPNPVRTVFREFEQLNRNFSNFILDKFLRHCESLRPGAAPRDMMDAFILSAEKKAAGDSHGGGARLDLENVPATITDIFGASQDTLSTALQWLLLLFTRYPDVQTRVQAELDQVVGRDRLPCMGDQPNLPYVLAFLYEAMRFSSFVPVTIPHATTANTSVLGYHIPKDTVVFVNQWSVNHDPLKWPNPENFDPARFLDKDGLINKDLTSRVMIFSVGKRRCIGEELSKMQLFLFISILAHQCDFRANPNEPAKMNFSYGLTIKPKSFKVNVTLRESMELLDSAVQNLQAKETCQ

[1] = Kitz-Wilson plot, mechanism-based inactivation

| KI, P450 1A1 (P450 1A1; [1]) [nM] | mechanism of inhibition of P450 1A1 (P450 1A1; in words) | KI, P450 1A2 (P450 1A2; [1]) [nM] | mechanism of inhibition of P450 1A2 (P450 1A2; in words) | selectivity for P450 1B1 over P450 1A1 (P450 1B1) [times] | selectivity for P450 1B1 over P450 1A2 (P450 1B1) | effect on P450 1A1 (P450 1A1; 0.1 μM inhibitor, in words) | effect on P450 1A2 (P450 1A2; 0.1 μM inhibitor, in words) | inhibition of P450 1A2 (P450 1A2; in words (conclusion)) | Compound |
| --- | --- | --- | --- | --- | --- | --- | --- | --- | --- |
| 130 | mechanism-based inhibitor | 71 | mechanism-based inhibitor |  |  |  |  |  | C#CCOc1cccc(-c2cc(=O)c3c(O)cccc3o2)c1 [5H3′FPE, 5-Hydroxy-2-(3-(propargyloxy)phenyl)-4H-chromen-4-one] |
|  |  |  |  | 120 | more than 250 times | without having any significant effect | without having any significant effect | no inhibition | C#CCOc1ccc(-c2cc(=O)c3c(O)cccc3o2)cc1 [5H4′FPE, 5-Hydroxy-2-(4-(propargyloxy)phenyl)-4H-chromen-4-one] |
